Source: patent publication US20120214862A1, “MODULATION OF FACTOR 7 EXPRESSION” (ISIS Pharmaceuticals, Inc., priority 2009, published 2012)
In the oligonucleotide strings, read from the 5' end, every base follows the letter of its sugar. An asterisk marks phosphorothioate; unmarked linkages are phosphodiester. Other units and linkages are bracketed, terminal groups are in braces. A string of capitals states the bases alone. e = 2'-O-(2-methoxyethyl) (MOE); [5mC] = 5-methylcytosine; d = 2'-deoxy (DNA)

Test system: human Factor 7 mRNA
Experiment: Antisense inhibition of human Factor 7 mRNA in HepB3 cells, lipofectin, 50 nM, real-time RT-PCR
Format: cell-based
Details: for % Inhibition (human Factor 7 mRNA): 50 nM, ~24 h
Procedure, shortened: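 4,000 cells/well; ~24 h exposure; RNA isolated; probe set RTS 2927; normalised to RIBOGREEN® total RNA; % inhibition vs untreated.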

[1] = HepB3 cells, lipofectin, 50 nM antisense oligonucleotide, approximately 24 hours, primer probe set RTS 2927, relative to untreated control
[2] = Example 6 microwalk, nucleobases 15098 to 15122 of SEQ ID NO: 1, HepB3, lipofectin
[3] = HepB3 cells, gapmers (5-10-5, 3-14-3, 2-13-5 MOE) targeted to nucleobases 4868 to 4899 of SEQ ID NO: 1
[4] = Example 1, HepB3 cells, lipofectin, relative to untreated control cells
[5] = Example 4, HepB3 cells, lipofectin, relative to untreated control
[6] = HepB3 cells, gapmers targeted to nucleobases 14707 to 14732 of SEQ ID NO: 1 (Table 11)
[7] = HepB3 cells, gapmers targeted to nucleobases 11830 to 11869 of SEQ ID NO: 1 (Table 9)

Row | Substance | % Inhibition of human Factor 7 mRNA levels [1] | % Inhibition (human Factor 7 mRNA) [4] | further results
1 | 416454 (antisense e[5mC]*eG*eT*eG*e[5mC]*dT*d[5mC]*dG*d[5mC]*d[5mC]*d[5mC]*dA*dG*d[5mC]*dA*e[5mC]*e[5mC]*eG*e[5mC]*eG) [compound 416454] | 56% |  | 
2 | 416498 (antisense eG*eG*e[5mC]*e[5mC]*eA*dG*dT*dG*dG*d[5mC]*d[5mC]*dA*dT*dG*d[5mC]*eA*eT*e[5mC]*e[5mC]*e[5mC]) [compound 416498] | 5% |  | 
3 | 416491 (antisense eG*eA*eG*eA*eA*dG*dG*dG*dT*dT*dG*d[5mC]*dA*dG*dG*e[5mC]*eA*eG*eG*eA) [compound 416491] | 2% |  | 
4 | 422207 (antisense e[5mC]*eA*e[5mC]*dA*d[5mC]*dA*dT*dG*dG*dA*dG*dT*d[5mC]*dA*dG*d[5mC]*dA*eT*e[5mC]*eG) [compound 422207] |  |  | % Inhibition (human Factor 7 mRNA) [2]: 41%
5 | 416436 (antisense eA*e[5mC]*eT*eG*eG*dT*d[5mC]*d[5mC]*d[5mC]*d[5mC]*dA*dT*d[5mC]*dA*d[5mC]*eT*eG*eT*eA*eA) [compound 416436] | 27% |  | 
6 | 416451 (antisense eG*e[5mC]*e[5mC]*eA*eT*dG*dG*dA*d[5mC]*dA*d[5mC]*dT*d[5mC]*d[5mC]*d[5mC]*e[5mC]*eT*eT*eT*eG) [compound 416451] | 75% |  | 
7 | 416530 (antisense eA*eG*eG*eG*eT*dA*dG*d[5mC]*d[5mC]*dT*dT*dT*dG*d[5mC]*d[5mC]*eT*eT*eG*eG*e[5mC]) [compound 416530] | 35% |  | 
8 | 416442 (antisense eA*eG*e[5mC]*eA*eG*dA*dT*dA*dT*dA*dG*dG*dA*d[5mC]*dT*eG*eG*eA*eG*e[5mC]) [compound 416442] | 57% |  | 
9 | 422299 (antisense eA*eG*d[5mC]*d[5mC]*d[5mC]*dG*dA*dG*dT*dT*d[5mC]*dT*dG*d[5mC]*dA*eG*eG*eA*eG*e[5mC]) [compound 422299] |  |  | % Inhibition of human Factor 7 mRNA levels [3]: 64%
10 | 407897 (antisense eG*e[5mC]*eT*eT*eG*dG*dT*dG*d[5mC]*d[5mC]*d[5mC]*dG*dT*dG*dT*eG*eG*eT*e[5mC]*eA) [compound 407897] |  | 77% | 
11 | 407631 (antisense eG*eG*eG*e[5mC]*eA*d[5mC]*d[5mC]*dA*d[5mC]*dA*dT*dG*dG*dT*d[5mC]*eA*eG*eT*eG*eA) [compound 407631] |  | 66% | 
12 | 416479 (antisense eG*eA*e[5mC]*eA*eG*d[5mC]*dA*d[5mC]*dA*d[5mC]*dA*dT*dG*dG*dA*eG*eT*e[5mC]*eA*eG) [compound 416479] | 56% |  | % Inhibition (human Factor 7 mRNA) [2]: 47%
13 | 407960 (antisense eG*eT*eG*e[5mC]*e[5mC]*d[5mC]*dA*dG*dG*dA*d[5mC]*dG*dG*d[5mC]*d[5mC]*e[5mC]*eT*eG*e[5mC]*eA) [compound 407960] |  | 53% | 
14 | 422136 (antisense e[5mC]*eA*eG*e[5mC]*eA*d[5mC]*dA*d[5mC]*dA*dT*dG*dG*dA*dG*dT*e[5mC]*eA*eG*e[5mC]*eA) [compound 422136] |  |  | % Inhibition (human Factor 7 mRNA) [2]: 57%
15 | 422118 (antisense e[5mC]*eG*eG*eA*eA*dG*dA*dA*dG*dG*dG*dA*d[5mC]*dG*dG*eA*eA*eG*eG*eT) [compound 422118] |  |  | % Inhibition (human Factor 7 mRNA) [5]: 15%
16 | 416492 (antisense eG*eG*eA*eT*e[5mC]*dA*dT*dT*d[5mC]*dT*dG*dG*d[5mC]*d[5mC]*d[5mC]*eT*eG*eA*eG*e[5mC]) [compound 416492] | 13% |  | 
17 | 422301 (antisense eG*eG*dA*dG*d[5mC]*d[5mC]*d[5mC]*dG*dA*dG*dT*dT*d[5mC]*dT*dG*e[5mC]*eA*eG*eG*eA) [compound 422301] |  |  | % Inhibition of human Factor 7 mRNA levels [3]: 67%
18 | 416464 (antisense eA*eA*e[5mC]*eA*eT*dG*dT*dA*d[5mC]*dT*d[5mC]*d[5mC]*dG*dT*dG*eA*eT*eA*eT*eT) [compound 416464] | 53% |  | 
19 | 407633 (antisense eG*e[5mC]*eA*eG*eG*d[5mC]*dA*dG*dT*d[5mC]*d[5mC]*dT*dG*dG*dG*eT*e[5mC]*eA*eT*e[5mC]) [compound 407633] |  | 71% | 
20 | 422278 (antisense eG*e[5mC]*d[5mC]*dT*dG*dA*dG*dG*d[5mC]*d[5mC]*dA*dG*d[5mC]*dA*dG*eA*eT*e[5mC]*eA*e[5mC]) [compound 422278] |  |  | % Inhibition of human Factor 7 mRNA levels [6]: 64%
21 | 407908 (antisense e[5mC]*e[5mC]*e[5mC]*e[5mC]*eA*dG*d[5mC]*d[5mC]*dG*d[5mC]*dT*dG*dA*d[5mC]*d[5mC]*eA*eA*eT*eG*eA) [compound 407908] |  | 47% | 
22 | 407941 (antisense eG*eA*eG*eA*e[5mC]*dG*d[5mC]*dA*dG*d[5mC]*d[5mC]*dG*dT*dT*dT*eA*eT*eT*eG*eT) [compound 407941] |  | 65% | 

Row | Substance | % Inhibition of human Factor 7 mRNA levels [1] | % Inhibition (human Factor 7 mRNA) [4] | further results
23 | 422091 (antisense eT*eG*eG*eT*e[5mC]*dA*dG*dG*dG*d[5mC]*dT*dG*dG*dT*dT*eT*eT*eG*eG*eA) [compound 422091] |  |  | % Inhibition of human Factor 7 mRNA levels [7]: 42%
24 | 407924 (antisense eG*eA*eT*eT*eT*dG*dG*dT*dG*d[5mC]*d[5mC]*dA*dG*dG*dA*e[5mC]*eA*eG*eT*eT) [compound 407924] |  | 68% | 
25 | 422155 (antisense eG*eT*e[5mC]*dA*dG*dG*dG*d[5mC]*dT*dG*dG*dT*dT*dT*dT*dG*dG*eA*eG*eG) [compound 422155] |  |  | % Inhibition of human Factor 7 mRNA levels [7]: 34%
26 | 407931 (antisense e[5mC]*eT*eT*e[5mC]*eA*dG*dA*dG*dG*dA*d[5mC]*dA*dG*d[5mC]*dA*e[5mC]*eA*e[5mC]*eA*eT) [compound 407931] |  | 56% | 
27 | 407653 (antisense eA*eA*eT*eA*eT*d[5mC]*dA*dT*dT*dG*dA*d[5mC]*dA*dA*dG*eG*eG*e[5mC]*eT*eG) [compound 407653] |  | 21% | 
28 | 422201 (antisense eG*e[5mC]*e[5mC]*dT*dG*dA*dG*dG*d[5mC]*d[5mC]*dA*dG*d[5mC]*dA*dG*dA*dT*e[5mC]*eA*e[5mC]) [compound 422201] |  |  | % Inhibition of human Factor 7 mRNA levels [6]: 71%
29 | 416458 (antisense eG*eG*e[5mC]*eG*eG*dA*dG*d[5mC]*dA*dG*d[5mC]*dG*d[5mC]*dG*dA*eT*eG*eT*e[5mC]*eG) [compound 416458] | 29% |  | 
30 | 416462 (antisense eG*eG*e[5mC]*eA*eG*dT*d[5mC]*d[5mC]*dT*dG*dG*dG*dT*d[5mC]*dA*eT*e[5mC]*eA*eG*e[5mC]) [compound 416462] | 60% |  | 
31 | 407618 (antisense eG*eT*eA*eT*eT*dT*dT*dT*d[5mC]*d[5mC]*dA*d[5mC]*dA*dT*dG*eG*eA*eT*eA*eT) [compound 407618] |  | 42% | 
32 | 416567 (antisense eT*eG*eG*eT*eG*dG*d[5mC]*dA*d[5mC]*d[5mC]*dA*dG*dA*dT*dG*eT*e[5mC]*eT*eG*eA) [compound 416567] | 2% |  | 
33 | 407627 (antisense eG*e[5mC]*e[5mC]*e[5mC]*eA*dG*d[5mC]*dA*d[5mC]*d[5mC]*dG*d[5mC]*dG*dA*dT*e[5mC]*eA*eG*eG*eT) [compound 407627] |  | 79% | 
34 | 422157 (antisense eT*eG*eG*dT*d[5mC]*dA*dG*dG*dG*d[5mC]*dT*dG*dG*dT*dT*dT*dT*eG*eG*eA) [compound 422157] |  |  | % Inhibition of human Factor 7 mRNA levels [7]: 49%
35 | 407914 (antisense e[5mC]*e[5mC]*eA*eG*e[5mC]*dT*dG*dA*d[5mC]*dG*dA*dT*dG*d[5mC]*d[5mC]*e[5mC]*eG*eT*e[5mC]*eA) [compound 407914] |  | 82% | 
36 | 422269 (antisense eG*eA*dG*d[5mC]*dG*d[5mC]*dG*dG*dA*dA*dG*dA*dA*dG*dG*eG*eA*e[5mC]*eG*eG) [compound 422269] |  |  | % Inhibition (human Factor 7 mRNA) [5]: 27%
37 | 407602 (antisense e[5mC]*eT*eG*e[5mC]*eA*dG*d[5mC]*d[5mC]*dA*dG*dG*d[5mC]*dA*dG*d[5mC]*e[5mC]*e[5mC]*eT*eG*eA) [compound 407602] |  | 81% | 
38 | 407917 (antisense eA*e[5mC]*eA*e[5mC]*e[5mC]*d[5mC]*d[5mC]*dA*dA*dA*dG*dT*dG*dG*d[5mC]*e[5mC]*e[5mC]*eA*e[5mC]*eG) [compound 407917] |  | 70% | 
39 | 422237 (antisense e[5mC]*eA*dA*dT*dG*dG*dT*d[5mC]*dA*dG*dG*dG*d[5mC]*dT*dG*eG*eT*eT*eT*eT) [compound 422237] |  |  | % Inhibition of human Factor 7 mRNA levels [7]: 50%
40 | 422214 (antisense eT*eT*e[5mC]*dT*dG*d[5mC]*dA*dG*dG*dA*dG*d[5mC]*dG*dG*d[5mC]*d[5mC]*dT*eA*eA*eA) [compound 422214] |  |  | % Inhibition of human Factor 7 mRNA levels [3]: 60%
41 | 422085 (antisense eG*e[5mC]*eA*eT*eG*dG*dT*dG*dA*dT*dG*d[5mC]*dT*dT*d[5mC]*eT*eG*eA*eA*eT) [compound 422085] |  |  | % Inhibition of human Factor 7 mRNA levels (HepB3 cells, gapmers targeted to nucleobases 15188 to 15211 of SEQ ID NO: 1 (Table 13)): 70%
42 | 422246 (antisense e[5mC]*eT*dG*dA*dG*dG*dA*dG*dA*d[5mC]*dA*dA*dT*dG*dG*eT*e[5mC]*eA*eG*eG) [compound 422246] |  |  | % Inhibition of human Factor 7 mRNA levels [7]: 46%
43 | 422163 (antisense eA*eG*eA*d[5mC]*dA*dA*dT*dG*dG*dT*d[5mC]*dA*dG*dG*dG*d[5mC]*dT*eG*eG*eT) [compound 422163] |  |  | % Inhibition of human Factor 7 mRNA levels [7]: 56%
